± gives the standard deviation.
What was measured:
[1] = biological target: Toxoplasma gondii RH tachyzoites; experiment: EC50 growth inhibition (48 h luciferase)
[2] = tested on: Plasmodium falciparum 3D7; experiment: EC50 growth inhibition (60 h, SYBR Green); details: stage: ring-stage start
[3] = tested on: Toxoplasma gondii RH tachyzoites; experiment: % growth inhibition vs DMSO (48 h luciferase); higher = more inhibition; details: 10 µM
[4] = tested on: Plasmodium falciparum 3D7; experiment: % inhibition of schizont-to-ring transition vs DMSO; higher = more inhibition
In short: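 Tightly synchronised P. falciparum schizonts (about 40–42 hours post-invasion, 1% parasitemia, 2.5% hematocrit, AlbuMAX-supplemented RPMI) were exposed to compound at 1, 3 or 10 µM, with vehicle and positive controls. Cells were glutaraldehyde-fixed, Triton-permeabilised, stained with Hoechst 33342 and counted by flow cytometry (at least 100,000 events). Schizont-to-ring transition inhibition is new ring formation relative to vehicle controls, averaged over three experiments.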

[5] = tested on: Toxoplasma gondii RH tachyzoites; experiment: plaque count per well; higher = less inhibition; extreme values may be limits of the assay; details: 10 µM; 8-10 days
Method: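 T. gondii RH tachyzoites expressing firefly luciferase were grown in HFF monolayers for 48 h with compound. % growth inhibition at 10 µM and EC50 (2-fold dilutions from 10 µM) were read by luminescence relative to 1% DMSO; EC50 listed as 10 (not determined, <80% inhibition) is left out. Plaque assays: 50 tachyzoites per well with 10 µM compound for 8-10 days, giving plaque count and area by crystal violet/ImageJ. Egress: median time to egress after 1 µM A23187 ionophore following 24 h of 10 µM compound (DMSO ~1.8 min; >10 = no egress within 10 min).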
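Wherever % growth inhibition vs DMSO (48 h luciferase) is given: tested in triplicate wells of 96-well plates on confluent HFF monolayers, with 1% DMSO wells as negative control in four replicates.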

Compound	EC50 growth inhibition [1]	EC50 growth inhibition [2]	% growth inhibition [3]	% inhibition of schizont-to-ring transition ([4]; 1 µM)	% inhibition of schizont-to-ring transition ([4]; 3 µM)	% inhibition of schizont-to-ring transition ([4]; 10 µM)	plaque count per well [5]
N=c1n(CCN2CCCCC2)c2ccccc2n1CC(O)c1cccc(Br)c1 (stereo unspecified)	4.58 µM	0.624 µM	85.2 ± 2.2%	< 0%	35.2%	64%	–
Nc1nc(Nc2cccc(F)c2)nc2ccccc12	8.21 µM	1.03 µM	100.5 ± 0.22%	15.3%	31.5%	62.7%	–
CCCc1c(C)nc2ccccc2c1O	0.803 µM	1.01 µM	87.69 ± 0.86%	8.03%	21.8%	46.6%	–
O=C1c2ccccc2C2=Nc3ccccc3SC(c3cccc(F)c3)C12 (stereo unspecified)	0.916 µM	0.283 µM	99.31 ± 0.18%	15.1%	29%	37.5%	–
COc1ccc(-c2nc(N3CCN(C(=O)C4CCCCC4)CC3)c3c4c(sc3n2)CCCC4)cc1	3.08 µM	4.08 µM	86 ± 3.8%	10.6%	17.7%	44.9%	–
CCN(CC)CCn1c(=N)n(CC(O)c2ccc(Cl)c(Cl)c2)c2ccccc21 (stereo unspecified)	1.31 µM	0.267 µM	85.7 ± 6.1%	51%	73.3%	78.2%	–
COc1ccc2c(=O)cc(C(Cl)(Cl)Cl)oc2c1	1.13 µM	2.9 µM	84.4 ± 9.2%	37.9%	45%	55.2%	–
COc1cccc(Nc2nc(NCCO)c3ccccc3n2)c1	1.09 µM	0.456 µM	97.5 ± 1.6%	39.7%	60.8%	65.6%	–
Cc1ccc(Cl)cc1N1CCN(CCCNC(=O)C2CCN(c3nc4ccccc4[nH]3)CC2)CC1	3.25 µM	0.92 µM	98.63 ± 0.9%	37.8%	50.8%	60.5%	–
c1ccc(CNc2nc(Nc3ccccc3)nc3ccccc23)cc1	0.708 µM	0.181 µM	99.917 ± 0.022%	44.8%	51.2%	66.8%	–
CCCCCn1c(=N)n(CC(O)COc2cccc(C)c2)c2ccccc21 (stereo unspecified)	1.77 µM	1.94 µM	99.47 ± 0.32%	8.72%	13.3%	61.9%	–
O=C(NCC1Cc2cccc(-c3ccncc3)c2O1)c1csc2c1CCCC2 (stereo unspecified)	0.845 µM	4.48 µM	94.12 ± 0.48%	9.1%	14.2%	20.6%	–
CCCCNCC(O)(c1ccc(Cl)cc1)c1ccc(Cl)cc1	6.55 µM	0.527 µM	97.55 ± 0.55%	8.52%	48.1%	70.3%	–
Cc1ccc(NC(=O)Nc2cccc(Cl)c2)cc1F	1.62 µM	6.57 µM	98.51 ± 0.27%	< 0%	2.62%	34.3%	–
CCOC(=O)c1cnc2ccc(OC)cc2c1NCc1ccccc1	1.4 µM	6.78 µM	97.7 ± 1.4%	42%	45.3%	59.1%	–
CCN(CC)c1ccc(NC(=O)c2cccs2)cc1	1.65 µM	2.11 µM	91.4 ± 2.7%	< 0%	3.66%	31.7%	–
COc1cccc(NC(=O)Cn2c(C)c(C#N)c3ccccc32)c1	0.905 µM	0.231 µM	94.39 ± 0.68%	56.8%	75.8%	77.4%	–
Oc1ccc(Cl)cc1CNc1nc2ccccc2[nH]1	1.31 µM	1.42 µM	96.5 ± 1.9%	22.5%	38.5%	58.6%	–
CCCCC(O)(c1ccc(Cl)cc1)C(CN1CCOCC1)c1ccc(Cl)cc1 (stereo unspecified)	5 µM	2.01 µM	99.1 ± 0.71%	21%	18.3%	40.5%	–
COc1ccc(C2Sc3ccccc3N=C3C2=C(O)c2ccccc23)cc1 (stereo unspecified)	0.963 µM	1.18 µM	98.68 ± 0.16%	< 0%	1.15%	31.1%	–
CCCCCCC(O)(c1ccc(F)cc1)C(CN1CCOCC1)c1ccccc1 (stereo unspecified)	3.57 µM	2.16 µM	100.1 ± 0.26%	37.5%	40.1%	40.3%	–
CSC1=NC(=Nc2c(C)cccc2C)C2(CCC(C(C)(C)C)CC2)N1c1ccc(Cl)cc1 (stereo unspecified)	0.775 µM	0.869 µM	99.94 ± 0.22%	12.4%	26.3%	49.9%	–

Compound	EC50 growth inhibition [1]	EC50 growth inhibition [2]	% growth inhibition [3]	% inhibition of schizont-to-ring transition ([4]; 1 µM)	% inhibition of schizont-to-ring transition ([4]; 3 µM)	% inhibition of schizont-to-ring transition ([4]; 10 µM)	plaque count per well [5]
Cc1ccnc(NC(c2cccc(OCc3ccccc3)c2)c2ccc3cccnc3c2O)c1 (stereo unspecified)	0.786 µM	0.886 µM	98.51 ± 0.34%	17.5%	41.1%	62.9%	–
O=C(Nc1cccc(C(F)(F)F)c1)c1cc(Cl)ccc1O	0.0092 µM	3.77 µM	99.77 ± 0.14%	< 0%	20.2%	51.6%	–
Cc1ccc(C2CC(C(F)(F)F)n3nc(C(=O)N4CCN(C(c5ccccc5)c5ccccc5)CC4)cc3N2)cc1 (stereo unspecified)	1.66 µM	2.04 µM	99.677 ± 0.058%	< 0%	< 0%	35.3%	–
O=C(Nc1ccc(Cl)c(Cl)c1)Nc1ccc(Cl)c(Cl)c1	0.196 µM	7.14 µM	100.5 ± 0.22%	15.3%	29.9%	72.5%	–
CC(Oc1ccc(NC(=O)c2cccs2)cc1)C(=O)c1ccc(Cl)cc1 (stereo unspecified)	0.257 µM	0.462 µM	98.06 ± 0.7%	17.7%	30.4%	47.3%	–
COc1ccc(-c2nonc2NC(=O)c2cccc(Cl)c2)cc1OC	0.0353 µM	1.17 µM	84.3 ± 0.96%	36.5%	56.1%	71%	–
FC(F)(F)c1ccc(Nc2nnnc3ccccc23)cc1	0.681 µM	1.02 µM	83.5 ± 1.2%	< 0%	4.32%	52.7%	–
Oc1ccc2ccccc2c1CNc1nc2ccccc2[nH]1	0.43 µM	2.93 µM	95.1 ± 1.9%	41.7%	57.8%	70.5%	–
Cc1ccc(Nc2nc(N)c3ccccc3n2)cc1Cl	1.98 µM	0.427 µM	98.03 ± 0.51%	23.3%	60.8%	67.5%	–
O=C(Nc1ccc(F)c(Cl)c1)Nc1ccc(Cl)c(Cl)c1	0.346 µM	3.98 µM	100.1 ± 0.21%	36.5%	55.4%	77.4%	–
O=c1nc(C=Cc2ccc(Cl)cc2)oc2ccccc12	0.0324 µM	0.999 µM	94.2 ± 2.2%	16.8%	24.1%	56.2%	–
CCOC(=O)c1cn(CC)c2cc(N(C)CCc3ccc(OC)c(OC)c3)c(F)cc2c1=O	0.91 µM	0.21 µM	97.69 ± 0.15%	36.8%	60.5%	66.7%	–
CCOC(=O)C1=CN(C)C=C(C(=O)OCC)C1c1cc(Br)c(OCC)c(OC)c1	2.59 µM	1.04 µM	95.51 ± 0.24%	41.2%	58.3%	58.9%	–
CCCOCc1cc(CN2CCN(c3cccc(Cl)c3)CC2)c(O)c2ncccc12	1.5 µM	3.79 µM	99.61 ± 0.24%	6.74%	41.8%	52.5%	–
COc1ccc(C2NCCc3c2[nH]c2ccccc32)cc1CN1CCN(c2ccc(F)cc2)CC1 (stereo unspecified)	4.88 µM	0.468 µM	99.96 ± 0.41%	26.9%	62.9%	77.3%	–
COc1cc(-c2nc(-c3ccc(Sc4ccccc4)cc3)c(-c3ccccc3)[nH]2)cc(OC)c1O	1.32 µM	0.449 µM	98.59 ± 0.34%	< 0%	< 0%	45.4%	–
OC(CNCC1CCCO1)Cn1c2ccc(Cl)cc2c2cc(Cl)ccc21 (stereo unspecified)	4.46 µM	0.394 µM	99.23 ± 0.57%	5.57%	44.1%	65.7%	–
COc1ccccc1NC1=C(N2CCCCC2)C(=O)c2ccccc2C1=O	4.95 µM	0.0359 µM	90.3 ± 3.8%	38.5%	61.8%	64.7%	–
O=c1c2c([nH]c3ccccc13)CCCC2	1.04 µM	1.79 µM	89.6 ± 1.1%	13.7%	22.2%	42.9%	–
COc1ccc(C2c3ccc4ccccc4c3Oc3ncn(CCCN(C)C)c(=N)c32)cc1 (stereo unspecified)	2.65 µM	0.319 µM	100.2 ± 0.12%	22.6%	63.4%	77.4%	–
O=C(Nc1ccc(Br)cc1)Nc1cccc(Cl)c1	3.77 µM	–	96.13 ± 0.57%	24.1%	22.5%	58.1%	–
COc1ccc(C(=O)NC(c2ccccc2Cl)c2cc(Cl)c3cccnc3c2O)cc1 (stereo unspecified)	0.592 µM	–	96.55 ± 0.71%	13.2%	31.2%	57.7%	–

Compound	EC50 growth inhibition [1]	EC50 growth inhibition [2]	% growth inhibition [3]	% inhibition of schizont-to-ring transition ([4]; 1 µM)	% inhibition of schizont-to-ring transition ([4]; 3 µM)	% inhibition of schizont-to-ring transition ([4]; 10 µM)	plaque count per well [5]
CCOc1ccc(-n2cc(-c3ccccc3)c3c(SCc4cc(C)ccc4C)ncnc32)cc1	3.17 µM	–	86.5 ± 1.3%	1.01%	7.47%	15.8%	–
Cc1ccc(S(=O)(=O)c2c(COC(=O)c3cccc(C)c3)c(-c3ccccc3)nn2C)cc1	2.06 µM	–	99.44 ± 0.48%	< 0%	1.67%	32.1%	–
Cc1ccc(-c2cc3nc4c(c(O)n3n2)CCCC4)cc1	–	4.27 µM	< 0%	17.7%	36.1%	49.3%	0
COc1ccc2nc(C)cc(Nc3cccc(O)c3)c2c1	–	0.845 µM	19.7 ± 6.3%	42.3%	59.4%	64%	0
O=C(NCC(c1ccsc1)N1CCCCCC1)c1ccc(C(F)(F)F)cc1 (stereo unspecified)	–	3.35 µM	11 ± 19%	43.8%	41.5%	47.4%	0
CCc1ccc(CNCC(O)c2ccccc2)cc1 (stereo unspecified)	–	4.01 µM	< 0%	12.2%	14.9%	45.9%	21
Cc1ccc(Nc2nc(NCCO)c3ccccc3n2)cc1C	–	0.194 µM	< 0%	54.1%	66.8%	69.1%	0
CCN(CC)CCNc1ncnc2c1[nH]c1ccc(Br)cc12	–	0.225 µM	7.24 ± 12%	41.8%	49.9%	55.8%	26
Cn1c(=O)c2cc(C(=O)NCCCN3CCCCCC3)sc2c2ccccc21	–	0.833 µM	5.71 ± 9.9%	42.6%	49.5%	53.2%	25
CC1CCN(Cc2ccc(NC(=O)c3cc4ccc5cccnc5c4[nH]3)cc2)CC1	–	0.241 µM	< 0%	42.3%	50%	55.4%	18
Cc1cccc(Nc2nc(N)c3ccccc3n2)c1	–	0.669 µM	< 0%	3.41%	36.1%	54.2%	0
Cc1ccc(F)cc1NC(=O)c1cc(Cl)ccc1Nc1ccccc1	–	1.79 µM	< 0%	54.4%	70.7%	81.9%	26
CCc1ccc(Nc2cc(C)nc3nc(C)nn23)cc1	–	2.28 µM	< 0%	7.01%	30%	50.7%	27
CCn1c(SCC(=O)Nc2cc(C(F)(F)F)ccc2Cl)nc2ccccc2c1=O	–	6.48 µM	< 0%	22.9%	30.1%	43.7%	26
COc1nc(Nc2ccc(C(C)C)cc2)nc(OC)n1	–	2.54 µM	< 0%	20.3%	32.6%	54.9%	30
CCCc1cc(O)c2c3c(c(=O)oc2c1)CN(C)CC3	–	0.364 µM	< 0%	25.2%	60.2%	68%	33
CCOc1ccc(N2C(N)=NC(N)=NC2(C)C)cc1	–	9.76 µM	< 0%	5.22%	7.7%	16%	28
O=[N+]([O-])c1ccc(C=NNc2nc3ccccc3[nH]2)cc1	–	0.663 µM	< 0%	29%	43.8%	49%	33
O=C(Nc1cccc(C2=NCCN2)c1)Nc1cccc(C2=NCCN2)c1	–	1.84 µM	7.82 ± 3.2%	< 0%	1.31%	32.2%	38
COc1ccc(C(=O)Nc2nonc2-c2ccc(OC)c(OC)c2)cc1Cl	–	0.42 µM	1.09 ± 1.9%	35.7%	67.3%	69.4%	20
Clc1ccc2c(N3CCCC3)ccnc2c1	–	1.28 µM	< 0%	43.1%	53.3%	69.9%	25

— the supplement of paper PMC5770543
